{
  "source": "patent EP1551873B1",
  "about": "“AGONISTS AND ANTAGONISTS OF THE HUMAN ODORANT RECEPTOR OR17-4 AND USES THEREOF” (Symrise AG, priority 2002, dated 2004)",
  "key": {"hOR17-40": {"molecular_target": "T1, hOR17-40 (Homo sapiens, UniProt P47881)", "T1 construct": "pOR17-40 (Ausschnitt) mit der vollständigen cDNA von hOR17-40; expressed in transfected cells; host or cells: HEK293, plasmid pOR17-40", "T1 sequence (P47881 1-315)": "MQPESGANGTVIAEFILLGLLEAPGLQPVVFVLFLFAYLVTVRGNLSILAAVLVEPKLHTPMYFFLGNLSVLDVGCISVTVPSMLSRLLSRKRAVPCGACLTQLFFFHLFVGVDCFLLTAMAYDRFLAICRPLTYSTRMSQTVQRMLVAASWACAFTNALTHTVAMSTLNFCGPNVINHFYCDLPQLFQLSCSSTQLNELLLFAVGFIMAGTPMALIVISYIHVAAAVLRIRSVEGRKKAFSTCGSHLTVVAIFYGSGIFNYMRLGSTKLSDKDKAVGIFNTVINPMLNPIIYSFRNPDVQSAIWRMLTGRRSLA", "assay": "Ca2+ imaging of HEK293 cells transfected with pOR17-40", "format": "cell-based"}, "[1]": {"molecular_target": "T2, hOR17-4 Rezeptor der vollen Länge (Homo sapiens, UniProt P34982)", "T2 construct": "wurde der Rezeptor hOR17-4 in seiner vollen Länge wie in Beispiel 3 beschrieben kloniert; expressed in transfected cells; host or cells: HEK293, transient, plasmid pOR17-4v (pRC/CMV)", "T2 sequence (P34982 1-312)": "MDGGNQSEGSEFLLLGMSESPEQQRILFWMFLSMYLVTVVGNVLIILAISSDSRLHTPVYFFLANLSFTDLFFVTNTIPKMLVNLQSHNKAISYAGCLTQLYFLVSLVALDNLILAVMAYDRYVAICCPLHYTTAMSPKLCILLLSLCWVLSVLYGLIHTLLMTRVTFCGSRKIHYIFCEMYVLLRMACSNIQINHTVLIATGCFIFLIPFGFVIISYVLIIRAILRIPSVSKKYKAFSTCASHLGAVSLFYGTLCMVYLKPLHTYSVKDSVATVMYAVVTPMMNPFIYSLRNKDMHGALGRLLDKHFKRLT", "assay": "Ca2+ imaging of HEK293 cells expressing full-length receptor (pOR17-4v)", "format": "cell-based", "source_text": "Um einen Expressionsvektor für das gesamte hOR17-4-Gen ohne geänderte Aminosäuresequenz zu erhalten, wurde das 982 bp lange PCR-Produkt (SEQ ID NO. 3, Herstellung vergleiche Beispiel 2) über stumpfe Enden in den Hindlll/Xbal verdauten Vektor pRC/CMV (Invitrogen, Carlsbad, CA), dessen überhängende Enden mit Klenow-Enzym aufgefüllt worden waren, einkloniert.\nHEK293-Zellen wurden in MEM (Life Technologies, Gaithersburg, MD), das mit 10 % hitze-inaktiviertem fetalem Kälber-Serum angereichert war, in einem Inkubator bei 37 °C in einer Atmosphäre aus 95 % befeuchteter Luft und 5 % CO2 kultiviert. Semikonfluente Zellen wurden in 35 mm Gefäßen (Falcon) mittels Calciumphosphat-Präzipitation (Zufall et al., PNAS 90 (1993), 9335-9339) unter Verwendung jeweils des Plasmids pOR17-4 bzw. pOR17-4v transfiziert. […]\nDie Ca^2+-imaging-Experimente wurden auf dem Träger eines invertierten Zeiss-Mikroskopes durchgeführt, das für die ratiofluorometrische Bildgebung mit einer Xenon-Bogenlampe, einem Vielfach-Wellenlängen-Illuminations-System POLYCH-ROM II zur Anregung, einer gekühlten charge-coupled device (CCD)-Kamera und einer WinNT-basierten T.I.L.L.-Vision-Software zum Sammeln und raum- und zeitabhängigen Quantifizieren Ca^2+-abhängiger Fluoreszenz-Signale (F340/F380-Verhältnis) ausgestattet war. […]"}, "menschliche Nase": {"test_system": "menschliche Nase", "assay": "Odour perception test on about 100 human subjects (agonist, antagonist, agonist again)", "format": "in vivo", "source_text": "An ca. 100 Probanden wurde die Wirkung des Agonisten (Bourgeonal, \"Duft A\") und des Antagonisten (n-Undecanal, \"Duft B\") getestet. Dabei wurde zuerst an Duft A (1:100 verdünnt) gerochen, dann wurde in kurzem zeitlichen Abstand (1 - 3 s) an Duft B (ebenfalls 1:100 verdünnt) gerochen, anschließend wurde direkt wieder an Duft A gerochen. Die Probanden wurden nach ihrem Riecheindruck befragt: • Alle 100 Probanden konnten beim jeweils ersten Riechen spezifisch Duft A und B wahrnehmen und unterscheiden. Ca. 90 der 100 Testpersonen beschrieben, dass beim zweiten Riechen an Duft A kein Dufteindruck ausgelöst wurde. Nach ca. 1 Minute war Duft A bereits wieder riechbar."}},
  "data": [
    {"smiles": "CC(C)(C)c1ccc(CCC=O)cc1", "note": "[Bourgeonal]", "values": [
      {"measurement": "Ca^2+-Signale (hOR17-40)", "setting": "hOR17-40", "result": "keine Ca^2+-Signale"},
      {"measurement": "Aktivierung des vollständigen Rezeptors hOR17-4", "setting": "[1]", "result": "aktivierte deutlich"}
    ]},
    {"smiles": "CCCCCCCCCCC=O", "note": "[n-Undecanal]", "values": [
      {"measurement": "inhibitorischer Effekt auf das Helional-induzierte Antwortmuster", "setting": "hOR17-40; pre-incubation", "result": "keinen inhibitorischen Effekt"},
      {"measurement": "Inhibition der Bourgeonal-Antwort", "setting": "[1]; 30 to 60 s pre-incubation of the cells", "result": "inhibiert"},
      {"measurement": "Testpersonen ohne Dufteindruck beim zweiten Riechen an Duft A", "setting": "menschliche Nase; Duft B 1:100 sniffed 1 - 3 s after Duft A 1:100, then Duft A again", "result": "Ca. 90 der 100 Testpersonen"},
      {"measurement": "Zeit, nach der Duft A wieder riechbar war", "setting": "menschliche Nase; after sniffing Duft B", "result": "ca. 1 Minute"}
    ]}
  ]
}
